# Key:
# Type in all cases: functional
# Proteus vulgaris = test: Antibacterial activity against Proteus vulgaris NCIM 2857 after 24 hr by agar well diffusion method; conditions: NCIM 2857, 24 h
# Bacillus subtilis = test: Antibacterial activity against Bacillus subtilis NCIM 2920 after 24 hr by agar well diffusion method; conditions: NCIM 2920, 24 h
# Escherichia coli = test: Antibacterial activity against Escherichia coli NCIM 5051 after 24 hr by agar well diffusion method; conditions: NCIM 5051, 24 h
# Staphylococcus aureus = test: Antibacterial activity against Staphylococcus aureus NCIM 5022 after 24 hr by agar well diffusion method; conditions: NCIM 5022, 24 h
# Pseudomonas aeruginosa = test: Antibacterial activity against Pseudomonas aeruginosa NCIM 2945 after 24 hr by agar well diffusion method; conditions: NCIM 2945, 24 h
# Salmonella typhi = test: Antibacterial activity against Salmonella enterica subsp. enterica serovar Typhi ATCC 19430 after 24 hr by agar well diffusion method; conditions: ATCC 19430, 24 h
smiles,measurement,setting,value
Sc1nc2cc(Cl)cc(Cl)c2o1,MIC,Proteus vulgaris,3.12 µg/mL
same,MIC,Bacillus subtilis,6.25 µg/mL
same,MIC,Escherichia coli,3.12 µg/mL
same,MIC,Staphylococcus aureus,25 µg/mL
same,MIC,Pseudomonas aeruginosa,3.12 µg/mL
same,MIC,Salmonella typhi,50 µg/mL
CCOC(=O)CSc1nc2cc(Cl)cc(Cl)c2o1,MIC,Proteus vulgaris,6.25 µg/mL
same,MIC,Bacillus subtilis,3.12 µg/mL
same,MIC,Escherichia coli,6.25 µg/mL
same,MIC,Staphylococcus aureus,25 µg/mL
same,MIC,Pseudomonas aeruginosa,3.12 µg/mL
NNc1nc2cc(Cl)cc(Cl)c2o1,MIC,Proteus vulgaris,3.12 µg/mL
same,MIC,Bacillus subtilis,6.25 µg/mL
same,MIC,Escherichia coli,50 µg/mL
same,MIC,Staphylococcus aureus,6.25 µg/mL
S=c1[nH]nc2oc3c(Cl)cc(Cl)cc3n12,MIC,Proteus vulgaris,6.25 µg/mL
same,MIC,Bacillus subtilis,3.12 µg/mL
same,MIC,Escherichia coli,3.12 µg/mL
same,MIC,Staphylococcus aureus,3.12 µg/mL
same,MIC,Pseudomonas aeruginosa,3.12 µg/mL
same,MIC,Salmonella typhi,50 µg/mL
CCOC(=O)CSc1nnc2oc3c(Cl)cc(Cl)cc3n12,MIC,Proteus vulgaris,3.12 µg/mL
same,MIC,Bacillus subtilis,3.12 µg/mL
same,MIC,Escherichia coli,3.12 µg/mL
same,MIC,Staphylococcus aureus,6.25 µg/mL
same,MIC,Pseudomonas aeruginosa,3.12 µg/mL
same,MIC,Salmonella typhi,50 µg/mL
O=[N+]([O-])c1ccc(NCn2nc3oc4c(Cl)cc(Cl)cc4n3c2=S)cc1,MIC,Proteus vulgaris,6.25 µg/mL
same,MIC,Bacillus subtilis,6.25 µg/mL
same,MIC,Staphylococcus aureus,3.12 µg/mL
same,MIC,Pseudomonas aeruginosa,3.12 µg/mL
O=C(O)c1cn(C2CC2)c2cc(N3CCNCC3)c(F)cc2c1=O [CIPROFLOXACIN],MIC,Proteus vulgaris,3.12 µg/mL
same,MIC,Bacillus subtilis,3.12 µg/mL
same,MIC,Escherichia coli,3.12 µg/mL
same,MIC,Staphylococcus aureus,3.12 µg/mL
same,MIC,Pseudomonas aeruginosa,3.12 µg/mL
same,MIC,Salmonella typhi,6.25 µg/mL
